Test results as given in paper PMC10901097, “Vanillin derivatives as antiamnesic agents in scopolamine-induced memory impairment in mice” (Heliyon, 2024).
Entries after “also recorded” stand apart in the source; their conditions may differ.

Legend:
[1] = biological target: T1, butyrylcholinesterase (EC 3.1.1.8) (Homo sapiens, UniProt P06276); assay: In-vitro BChE inhibitory assay (Ellman's protocol); type: biochemical; settings: triplicate (n = 3); 405 nm
T1 construct: purchased local market (no vendor named)
Protocol: (§1) To evaluate the therapeutic effectiveness of the compounds as inhibitors of cholinesterases, the reported procedures were followed (Elman's protocol). Enzymes acetylcholinesterase (EC 3.1.1.7) and butyrylcholinesterase (EC 3.1.1.8) were purchased from local market.
The absorbance at 405 nm was measured and the data were analysed in triplicate.

[2] = test system: scopolamine-induced memory impairment in mice; assay: Novel object recognition test (NORT), scopolamine-induced amnesia; type: in vivo, Albino mice; settings: for effect on discrimination index in NOR test: 50 mg/kg and 100 mg/kg b.w, compared with scopolamine group / galantamine; for effect on time spent with the new object N (exploration time) in NOR test: 50 and 100 mg/kg b.w (galantamine: standard), compared with scopolamine group; for effect on latency time to discover familiar object (F) in NOR test: 50 and 100 mg/kg b.w, compared with scopolamine-injected group
Protocol: (§2) Albino mice (20–23 g b. w.) were brought from National Institute of Health, Islamabad, Pakistan, and the mice were retained in animal house at University of Malakand at Department of Pharmacy for acclimation. Normal pellet diet and water were provided to all the animals and were kept for 12 h of light-dark cycle under normal laboratory conditions (temperature in a range of 25 ± 2 °C, humidity of 56–66%). All protocols employed were approved from the Ethical Committee vide notification Pharm/EC-QRE/10–31/25 as per approved “Animal Bye-Laws 2008, Scientific Procedures Issue-I of the Malakand University” and the UK animal scientific procedure act (1986).
(§3) After acclimatization, the animals were grouped into different groups consisting of 6 animals each. […] It also can induce amyloid β deposition, oxidative stress, synaptic dysfunction, and learning/memory impairment in experimental animals. […] The treatment was carried out continuously for 7 days and after treatment schedule, the animals were subjected to behavioural study using Y-maze and NORT.
NORT was used to assess the effect of vanillin derivatives on memory in mice model. The apparatus employed in this test measures 40 cm wide, 40 cm long, and 66 cm tall. NORT entails a two-day habituation period, followed by a two-day training session and finally a testing or experimental period. During habituation, an empty box was used, two identical objects were placed in two corners of the box during training, and one unique object was replaced during testing as shown in Fig. 3. To test long-term memory in mice, a five-day washout period was provided before the NORT. The time spent in each phase was manually documented using a stopwatch.
Fig. 3 Procedures for novel object recognition (NORT). The three phases of the test are shown. In NORT, object identity is changed between training and test; object location is remained unchanged.

[3] = DPPH free radical scavenging assay; settings: triplicate (n = 3); 517 nm, 15 min
Protocol: A slightly modified DPPH assay as described by Brand William was followed. Initially, the absorbance of 3 mL from stock DPPH (20 mg/100 mL of methanol) was adjusted to 0.75 at 517 nm. The DPPH stock solution was covered and kept in the dark overnight to generate free radicals. About 2 mL of each dilution of different ranges (0.1–3.5 μM) was prepared from SB1– SB6 stock (5 mg/5 mL of methanol) were mixed with 2 mL of pre-incubated DPPH stock solution and incubated for 15 min at room temperature. Ascorbic acid was used as a standard. The absorbance of the reaction mixtures was recorded at 517 nm and the % inhibition was calculated by Equation (1):[1] %inhibition=A−B/A×100
where A = absorbance of pure DPPH in oxidized form, B = absorbance of the sample, which
Was measured after 15 min of reaction with DPPH.

[4] = biological target: T2, acetylcholinesterase (EC 3.1.1.7) (Homo sapiens, UniProt P22303); assay: biochemical; settings: triplicate (n = 3); 405 nm; read-out: IC50 (μM) AChE
T2 construct: purchased local market (no vendor named)
Excerpt: as §1
The acetylcholinesterase inhibition assay is based on the principle of the hydrolytic breakdown of substrate; acetylthiocholine iodide by acetylcholinesterase enzyme. The AChE acts on acetylthiocholine to thiocholine which then react with DTNB that's leads towards the formations of anion (5-thio-2-nitrobenzoate) a yellow colour product which is then assessed via UV visible spectrophotometer at 405 nm.
The AChE, Ellman's Reagent (DTNB) and acetylthiocholine iodide (ATChI, substrate), and the test compound solutions were made in different concentrations ranges from (0.01–1.0 μM) were incubated per detail given in the Ellman's protocol. […] IC50 of each Schiff bases were calculated using Microsoft Excel 2013 software.

[5] = ABTS free radical scavenging assay; settings: triplicate (n = 3); 745 nm, 15 min
Protocol: The antioxidant potential of the synthesized compounds were also determined using ABTS free radical following a reported standard protocol. ABTS (7 mM) and K2S2O8 (2.45 mM) were mixed (in methanol) and put in the dark for 24 h for free radicals’ formation, which was then used as stock solution. The absorbance of 3 mL from the stock ABTS was adjusted to 0.75 at 745 nm, which was considered a control. About 300 μl of each of the serial dilutions (0.1–3.5 μM) of SB1– SB6 and 3 mL of stock ABTS were mixed and incubated for 15 min at 25 °C, and their absorbance was measured at 745 nm. Ascorbic acid was used as a control. The scavenging activity was calculated by Equation (1).

[6] = test system: scopolamine-induced memory impairment in mice; assay: Y-maze spontaneous alternation, scopolamine-induced amnesia; type: in vivo, Albino mice; settings: for effect on spontaneous alternation / short-term memory retention in Y-Maze (significance): 50 and 100 mg/kg b.w, compared with scopolamine-injected group
Protocol: as §2
as §3, with “animals. Group II received scopolamine along with galantamine as standard.” for “animals.”
To assess the short-term memory (amnesic) effect, the exploratory activity of mice were investigated using Y- maze apparatus. At a time, a single mouse was placed at Y-shaped maize and allowed to move freely for 5-min session and alterations were recorded as shown in Fig. 2. The percentage alternations were calculated as per reported protocol and mathematically as given in equation (2).[2] %Alternation=Spontaneousalternation/Totalnumberofarmentries−2×100
Fig. 2 (A). Schematic drawings of the Y-maze and the experimental procedures. The sample trial and test trials were conducted for 5 min at a 30 min interval. (B) The Y-Maze test diagrammatic figure. (a) The mouse was positioned in the middle of the fixed arm and faced the maze's centre during the test. (b) A mouse was considered to have entered an arm when all four of its paws passed the threshold inside the arm and the mouse's snout was pointed in the direction of the end of the arm. (C). Alternations consist of single, uninterrupted entries into each arm of the y-maze. There are three steps involved in each alternation. The steps of alternation are shown in (a) the first entrance into the arm 1; (b) the second entry into the arm 3; and (c) the third entry into the arm 2 [41, 42].

[7] = 50 mg/kg b.w (lower test dose), 7 days, with scopolamine 2 mg/kg i.p., mean ± SEM, n = 6

T1 sequence (P06276 29-602): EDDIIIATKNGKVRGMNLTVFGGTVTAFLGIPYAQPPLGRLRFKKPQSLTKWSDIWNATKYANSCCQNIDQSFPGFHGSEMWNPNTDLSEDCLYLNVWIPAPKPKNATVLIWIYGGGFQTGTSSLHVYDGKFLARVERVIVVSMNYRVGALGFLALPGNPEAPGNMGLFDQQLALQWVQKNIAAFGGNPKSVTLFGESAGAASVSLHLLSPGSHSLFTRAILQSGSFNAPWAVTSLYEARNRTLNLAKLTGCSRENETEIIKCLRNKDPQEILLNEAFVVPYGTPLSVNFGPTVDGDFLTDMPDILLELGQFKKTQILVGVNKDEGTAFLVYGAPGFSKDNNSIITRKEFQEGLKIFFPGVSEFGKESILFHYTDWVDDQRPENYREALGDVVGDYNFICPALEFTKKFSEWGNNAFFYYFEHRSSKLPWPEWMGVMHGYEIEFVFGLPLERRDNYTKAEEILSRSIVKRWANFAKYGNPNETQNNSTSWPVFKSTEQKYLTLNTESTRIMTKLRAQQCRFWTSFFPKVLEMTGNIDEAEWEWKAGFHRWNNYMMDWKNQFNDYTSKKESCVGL
T2 sequence (P22303 32-614, species assumed): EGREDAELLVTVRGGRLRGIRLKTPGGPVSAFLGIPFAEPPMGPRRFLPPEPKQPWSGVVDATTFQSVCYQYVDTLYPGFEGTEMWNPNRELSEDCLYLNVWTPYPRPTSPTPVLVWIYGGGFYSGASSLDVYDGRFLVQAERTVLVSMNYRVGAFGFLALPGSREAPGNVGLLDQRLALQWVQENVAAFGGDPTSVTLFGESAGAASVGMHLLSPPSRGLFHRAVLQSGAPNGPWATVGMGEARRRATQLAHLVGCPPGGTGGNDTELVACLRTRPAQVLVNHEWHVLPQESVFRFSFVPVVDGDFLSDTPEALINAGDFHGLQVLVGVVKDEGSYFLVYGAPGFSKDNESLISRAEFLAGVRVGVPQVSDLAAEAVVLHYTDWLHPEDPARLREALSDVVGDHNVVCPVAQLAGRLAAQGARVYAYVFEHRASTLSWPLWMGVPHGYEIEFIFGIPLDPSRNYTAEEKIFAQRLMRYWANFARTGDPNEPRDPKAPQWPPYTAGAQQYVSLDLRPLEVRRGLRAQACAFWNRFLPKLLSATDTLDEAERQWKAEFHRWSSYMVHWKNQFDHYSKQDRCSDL

Compound | IC50 [1] | effect on discrimination index in NOR test [2] | effect on time spent with the new object N (exploration time) in NOR test [2] | effect on latency time to discover familiar object (F) in NOR test [2] | IC50 [3] | IC50 [4] | IC50 [5] | spontaneous alternation rate in Y-Maze [6, 7] | effect on spontaneous alternation / short-term memory retention in Y-Maze (significance) [6] | changes in the memory and cognition of mice (NORT) ([2]; mouse, in vivo) | spontaneous alternation rate in Y-Maze ([6]; scopolamine-treated group, 2 mg/kg i.p. alone, n = 6) | spontaneous alternation rate in Y-Maze ([6]; standard group: galantamine with scopolamine, P < 0.001 vs scopolamine-treated group)
COc1cc(/C=N/c2ccccc2C(F)(F)F)ccc1O [SB-1, (E)-2-methoxy-4-(((2-(trifluoromethyl)phenyl)imino)methyl)phenol] | 0.265 µM | most prominent activity; also recorded: more pronounced as compared to standard drug | significant increase | decreased the latency time significantly | 0.588 µM | 0.078 µM | 0.208 µM | 69.44 ± 1% | significantly improved |  |  | 
Cc1ccc(/N=C/c2ccc(O)cc2)c(Cl)c1 [SB-4, (E)-4-(((2-chloro-4-methylphenyl)imino)methyl)phenol] | 0.367 µM | most prominent activity | significant increase | decreased the latency time significantly | 0.804 µM | 0.108 µM | 0.969 µM |  |  |  |  | 
O=C1O[C@H]([C@@H](O)CO)C(O)=C1O [Ascorbic acid, reference compound] |  |  |  |  | 0.074 µM |  | 0.073 µM |  |  |  |  | 
Cc1ccc(/N=C/c2ccc[nH]2)c(Cl)c1 [SB-6, (E)-N-((1H-pyrrol-2-yl)methylene)-2-chloro-4-methylaniline] | 0.117 µM |  | slight activity | decreased the latency time significantly | 2.8 µM |  | 3.3 µM |  |  |  |  | 
Oc1ccc(/C=N/c2ccccc2C(F)(F)F)cc1 [SB-3, (E)-4-(((2-(trifluoromethyl)phenyl)imino)methyl)phenol] | 0.057 µM | most prominent activity | significant increase | decreased the latency time significantly | 0.305 µM | 0.157 µM | 0.118 µM | 68.92 ± 1% | significantly improved |  |  | 
COc1ccc(/C=N/c2ccccc2C(F)(F)F)cc1O [SB-2, (E)-2-methoxy-5-(((2-(trifluoromethyl)phenyl)imino)methyl)phenol] | 0.188 µM | insignificant activity | insignificant activity | insignificant | 0.447 µM | 0.61 µM | 0.401 µM |  | no significant effect | did not cause any changes |  | 
Cc1ccc(/N=C/c2ccccc2Br)c(Cl)c1 [SB-5, (E)-N-(2-bromobenzylidene)-2-chloro-4-methylaniline] | 0.186 µM | insignificant activity | insignificant activity | significant decrease | 0.72 µM | 0.442 µM | 0.19 µM |  |  |  |  | 
CN1[C@@H]2C[C@@H](OC(=O)[C@H](CO)c3ccccc3)C[C@H]1[C@@H]1O[C@@H]12 [Scopolamine] |  |  |  |  |  |  |  |  |  |  | 38.16% | 
COc1ccc2c3c1O[C@H]1C[C@@H](O)C=C[C@@]31CCN(C)C2 [Galantamine, reference compound] |  |  | significant increase |  |  |  |  |  |  |  |  | more than 80%
